From patent publication US20180338980A1, “AROMATIC SULFONAMIDE DERIVATIVES” (BAYER PHARMA AKTIENGESELLSCHAFT, priority 2015, published 2018)

Target: T1, P2X4 (Homo sapiens, UniProt Q99571)
T1 sequence (Q99571 1-388): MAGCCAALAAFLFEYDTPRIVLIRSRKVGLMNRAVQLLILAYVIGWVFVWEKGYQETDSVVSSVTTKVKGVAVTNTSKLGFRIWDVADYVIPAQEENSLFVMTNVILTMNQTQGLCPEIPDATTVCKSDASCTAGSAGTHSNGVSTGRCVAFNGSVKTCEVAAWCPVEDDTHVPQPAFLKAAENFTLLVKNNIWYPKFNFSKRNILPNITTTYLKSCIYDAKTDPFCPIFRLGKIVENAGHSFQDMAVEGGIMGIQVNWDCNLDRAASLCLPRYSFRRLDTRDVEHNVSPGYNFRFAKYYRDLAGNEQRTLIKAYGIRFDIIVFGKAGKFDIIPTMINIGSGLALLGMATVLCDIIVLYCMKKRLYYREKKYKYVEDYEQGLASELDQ
Test: Assay B: human P2X4 receptor cell line, mitochondrial photina luminescence (agonist Bz-ATP at EC50)
Type: cell-based
Design: host or cells: HEK 293 (recombinant, constitutively expressing; with mitochondrial photina in Assay B)
Conditions: HEK human P2X4 cell line, photina luminescence, agonist Bz-ATP at EC50, average; for Emax: read-out: human P2X4 Assay B avg Efficacy
Method: The identification of agonists and antagonists of the P2X4 receptor from humans and […] also the quantification of the activity of the compounds of the invention was performed by use of recombinant cell lines. […] The test cell lines constitutively express the mouse or human P2X4 receptors. Stimulation of the receptors with an agonist leads to a conformational change of P2X4 and influx of extracellular calcium ions through the ion channel. The cytoplasmatic calcium transient is detected via the calcium sensitive dye Fluo8 for the mouse P2×4 cell line or in case of the human P2×4 cell line a stably expressed calcium-sensitive photoprotein, mitochondrial photina, which, after reconstitution with the cofactor coelenterazine, emits light in dependence of calcium binding [Bovolenta S, Foti M, Lohmer S, Corazza S., J Biomol Screen. […] The strength of Fluo8 fluorescence signal or photina luminescence signal corresponds to the level of receptor activation. An inhibitor would decrease the signal depending on its potency and concentration.
The resulting light signal is measured immediately in the luminometer.

SMILES | IC50 [nM] | human P2X4 Assay B avg Efficacy [%] | Emax [%]
CC(Oc1ccc(NC(=O)Cc2ccccc2Cl)cc1S(N)(=O)=O)c1ccccc1 (single isomer, unassigned) [Example 148B, 2-(2-Chlorophenyl)-N-[4-(1-phenylethoxy)-3-sulfamoylphenyl]acetamide] | 519 | 64 | –
N#Cc1cc(Cl)cc(Oc2ccc(NC(=O)Cc3ccccc3Cl)cc2S(N)(=O)=O)c1 [Example 001, N-[4-(3-Chloro-5-cyanophenoxy)-3-sulfamoylphenyl]-2-(2-chlorophenyl)acetamide] | 7720 | – | 61
NS(=O)(=O)c1cc(NC(=O)Cc2ccccc2Cl)ccc1Oc1cccc(-c2nnn[nH]2)c1 [Example 021, 2-(2-Chlorophenyl)-N-{3-sulfamoyl-4-[3-(1H-tetrazol-5-yl)phenoxy]phenyl}acetamide] | 3860 | – | 60
N#Cc1ccc(Oc2ccc(NC(=O)Cc3ccccc3Cl)cc2S(N)(=O)=O)cc1C#N [Example 025, 2-(2-Chlorophenyl)-N-[4-(3,4-dicyanophenoxy)-3-sulfamoylphenyl]acetamide] | > 16000 | – | 50
NS(=O)(=O)c1cc(NC(=O)Cc2ccccc2Cl)ccc1Oc1cccc(N2CCN(C(=O)Cc3ccccc3Cl)CC2)c1 [Example 027, 2-(2-Chlorophenyl)-N-[4-(3-{4-[(2-chlorophenyl)acetyl]piperazin-1-yl}phenoxy)-3-sulfamoylphenyl]acetamide] | 776 | – | 99
N#Cc1cc(C#N)cc(Oc2ccc(NC(=O)Cc3ccccc3Cl)cc2S(N)(=O)=O)c1 [Example 033, 2-(2-Chlorophenyl)-N-[4-(3,5-dicyanophenoxy)-3-sulfamoylphenyl]acetamide] | 6750 | – | 75
COc1ccc(C#N)cc1Oc1ccc(NC(=O)Cc2ccccc2Cl)cc1S(N)(=O)=O [Example 034, 2-(2-Chlorophenyl)-N-[4-(5-cyano-2-methoxyphenoxy)-3-sulfamoylphenyl]acetamide] | 172 | – | 57

The next lines start with the values.

IC50 [nM] | human P2X4 Assay B avg Efficacy [%] | Emax [%] | SMILES
6340 | – | 50 | NS(=O)(=O)c1cc(NC(=O)Cc2ccccc2Cl)ccc1Oc1ccnc(Cl)c1 [Example 003, 2-(2-Chlorophenyl)-N-{4-[(2-chloropyridin-4-yl)oxy]-3-sulfamoylphenyl}acetamide]
1420 | – | 80 | NS(=O)(=O)c1cc(NC(=O)Cc2ccccc2Cl)ccc1Oc1cncnc1 [Example 019, 2-(2-Chlorophenyl)-N-[4-(pyrimidin-5-yloxy)-3-sulfamoylphenyl]acetamide]
166 | – | 73 | COc1ccc(Oc2ccc(NC(=O)Cc3ccccc3Cl)cc2S(N)(=O)=O)cc1 [Example 023, 2-(2-Chlorophenyl)-N-[4-(4-methoxyphenoxy)-3-sulfamoylphenyl]acetamide]
5080 | – | 99 | N#Cc1ccc(Oc2ccc(NC(=O)Cc3ccccc3Cl)cc2S(N)(=O)=O)cc1 [Example 030, 2-(2-Chlorophenyl)-N-[(4-cyanophenoxy)-3-sulfamoylphenyl]acetamide]
3570 | – | 60 | NS(=O)(=O)c1cc(NC(=O)Cc2ccccc2Cl)ccc1Oc1cc(Cl)cnc1Cl [Example 035, 2-(2-Chlorophenyl)-N-{4-[(2,5-dichloropyridin-3-yl)oxy]-3-sulfamoylphenyl}acetamide]
777 | – | 74 | NS(=O)(=O)c1cc(NC(=O)Cc2ccccc2Cl)ccc1Oc1ncccc1Cl [Example 038, 2-(2-chlorophenyl)-N-{4-[(3-chloropyridin-2-yl)oxy]-3-sulfamoylphenyl}acetamide]
238 | – | 64 | NS(=O)(=O)c1cc(NC(=O)Cc2ccccc2Cl)ccc1Oc1cccc(Cl)n1 [Example 040, 2-(2-Chlorophenyl)-N-{4-[(6-chloropyridin-2-yl)oxy]-3-sulfamoylphenyl}acetamide]
